From the NIST ThermoML archive (doi:10.1021/je800046k)
± gives the expanded uncertainty stated by the source.

Key:
[1] = for surface tension liquid-gas: Pendant drop shape; for mass density: 101 kPa, Liquid
[2] = xn = mol fraction of the nth substance listed; settings: for surface tension liquid-gas: Pendant drop shape; for mass density: 101 kPa, Liquid

Compound	surface tension liquid-gas ([1]; 298.15 K)	mass density ([1]; 298.15 K)	surface tension liquid-gas ([1]; 308.15 K)	mass density ([1]; 308.15 K)	surface tension liquid-gas ([1]; 313.15 K)	mass density ([1]; 313.15 K)	further results
Cc1ccc(C)c(C)c1 [1,2,4-trimethylbenzene]	29.3 ± 0.33 mN/m	871.71 ± 0.54 kg/m3	28.24 ± 0.32 mN/m	863.68 ± 0.56 kg/m3	27.71 ± 0.31 mN/m	859.58 ± 0.56 kg/m3	–
CC(=O)OC(C)C [1-methylethyl ethanoate] + Cc1cc(C)cc(C)c1	–	–	–	–	–	–	surface tension liquid-gas ([2]; 298.15 K, x1 = 1): 21.89 ± 0.25 mN/m; mass density ([2]; 298.15 K, x1 = 1): 866.25 ± 0.34 kg/m3; surface tension liquid-gas ([2]; 308.15 K, x1 = 1): 20.81 ± 0.24 mN/m; mass density ([2]; 308.15 K, x1 = 1): 854.54 ± 0.36 kg/m3; surface tension liquid-gas ([2]; 313.15 K, x1 = 1): 20.29 ± 0.24 mN/m; mass density ([2]; 313.15 K, x1 = 1): 848.61 ± 0.37 kg/m3
CC(=O)OCC(C)C [2-methylpropyl ethanoate]	23.15 ± 0.35 mN/m	866.06 ± 1.2 kg/m3	22.16 ± 0.33 mN/m	855.51 ± 1.2 kg/m3	21.64 ± 0.33 mN/m	850.16 ± 1.2 kg/m3	–
CC(=O)OC(C)C [1-methylethyl ethanoate] + Cc1ccc(C)c(C)c1	–	–	–	–	–	–	surface tension liquid-gas ([2]; 298.15 K, x1 = 1): 21.89 ± 0.25 mN/m; mass density ([2]; 298.15 K, x1 = 1): 866.25 ± 0.44 kg/m3; surface tension liquid-gas ([2]; 308.15 K, x1 = 1): 20.81 ± 0.24 mN/m; mass density ([2]; 308.15 K, x1 = 1): 854.54 ± 0.46 kg/m3; surface tension liquid-gas ([2]; 313.15 K, x1 = 1): 20.29 ± 0.24 mN/m; mass density ([2]; 313.15 K, x1 = 1): 848.61 ± 0.47 kg/m3
Cc1cc(C)cc(C)c1 [1,3,5-trimethylbenzene] + CC(=O)OCC(C)C	–	–	–	–	–	–	surface tension liquid-gas ([2]; 298.15 K, x2 = 0): 28.05 ± 0.31 mN/m; mass density ([2]; 298.15 K, x2 = 0): 861.12 ± 0.53 kg/m3; surface tension liquid-gas ([2]; 308.15 K, x2 = 0): 27.21 ± 0.3 mN/m; mass density ([2]; 308.15 K, x2 = 0): 852.94 ± 0.55 kg/m3; surface tension liquid-gas ([2]; 313.15 K, x2 = 0): 26.78 ± 0.3 mN/m; mass density ([2]; 313.15 K, x2 = 0): 848.82 ± 0.56 kg/m3
Cc1ccc(C)c(C)c1 [1,2,4-trimethylbenzene] + CC(=O)OCC(C)C	–	–	–	–	–	–	surface tension liquid-gas ([2]; 298.15 K, x2 = 0): 29.3 ± 0.33 mN/m; mass density ([2]; 298.15 K, x2 = 0): 871.71 ± 0.54 kg/m3; surface tension liquid-gas ([2]; 308.15 K, x2 = 0): 28.24 ± 0.32 mN/m; mass density ([2]; 308.15 K, x2 = 0): 863.68 ± 0.56 kg/m3; surface tension liquid-gas ([2]; 313.15 K, x2 = 0): 27.71 ± 0.31 mN/m; mass density ([2]; 313.15 K, x2 = 0): 859.58 ± 0.56 kg/m3
Cc1cc(C)cc(C)c1 [1,3,5-trimethylbenzene]	28.05 ± 0.31 mN/m	861.12 ± 0.41 kg/m3	27.21 ± 0.3 mN/m	852.94 ± 0.42 kg/m3	26.78 ± 0.3 mN/m	848.82 ± 0.43 kg/m3	–
CC(=O)OC(C)C [1-methylethyl ethanoate]	21.89 ± 0.25 mN/m	866.25 ± 0.44 kg/m3	20.81 ± 0.24 mN/m	854.54 ± 0.46 kg/m3	20.29 ± 0.24 mN/m	848.61 ± 0.47 kg/m3	–
